Test results published in patent US9056814B2, “Polymorphic form of a calcimimetic compound” (LEO PHARMA A/S, priority 2010, dated 2015).

How the values were obtained:
Format in all cases: physicochemical
[1] = Stress stability test for solid state transformation; conditions: 60° C., 60° C./75% relative humidity and 80° C./75% relative humidity; 4 weeks
Protocol: Polymorph Form C, Form X and mixtures of the two polymorphic forms C+X have all been tested at different conditions of temperature and relative humidity for signs of solid state transformation. The stress stability test was carried out at three sets of conditions: 60° C., 60° C./75% relative humidity and 80° C./75% relative humidity, and samples were analyzed after 1, 2 and 4 weeks, ie. after 7, 14 and 28 days.
One 1.8 ml amber screw top vial (27267-U, Supelco) containing between 50 and 100 mg {4-[(1R,3S)-3-((R)-1-Naphthalen-1-yl-ethylamino)-cyclopentyl]-phenoxy}-acetic acid was tested per individual set of conditions. The vials to be tested at 60° C. were closed with a PTFE lined black polypropylene solid cap (27416, Supelco) and placed in a thermostated heating cabinet. The vials to be tested at 60° C./75% relative humidity and 80° C./75% relative humidity were placed uncapped in a desiccator containing a saturated NaCl solution. The desiccator was subsequently placed in a thermostated heating cabinet.
The samples were analyzed at 1, 2 and 4 weeks for • 1. Visual appearance • 2. HPLC assay and impurities • 3. Polymorph characterization

[2] = Competitive slurrying experiments (XRPD follow-up); conditions: for Polymorphic stability/conversion in competitive slurrying: MeOH suspension 30 mg/mL, 14 days, 5° C., room temperature and reflux (65° C.)
Protocol: The suspensions at 5° C. and r.t. were prepared in 4 mL vials with caps and equipped with a small magnetic stirrer bar. The suspensions were stirred at approximately 500 rpm. for two weeks. The suspensions prepared at high temperature were prepared in 10 mL Erlenmeyer flask equipped with a magnetic stirrer bar and reflux condenser.
Samples of the suspensions were taken at time=0, 1 day, 7 days and 14 days and investigated by XRPD.

[3] = Aqueous solubility as a function of pH; conditions: room temperature, conclusion from Table 6
Protocol: The aqueous solubility of Form C and Form X was determined as a function of pH at 25° C. in 0.1N HCl (pH 1.0) and in Sorensen phosphate buffers at pH 2.0, 4.0, 6.0 and 8.0. For each pH value two individual determinations were made. Form C or Form X was weighed out (11 mg for pH 1, 4 mg for pH 2-8) in scintillation vials and 4 ml 0.1N HCl or buffer was added. The vials were shaken for 24 hours at 25° C. After 24 hours it was checked that the vial still contained undissolved material. The suspensions were filtered through a 0.45 μm filter, which was first saturated with app. 0.5 ml filtrate. The resulting filtrates were diluted and analyzed by HPLC vs. a standard curve.

[4] = Thermo gravimetric analysis (TGA); conditions: Graph 4a (Form C sample), ±2° C.
Protocol: Thermo gravimetric analysis (TGA): TGA experiments were conducted using a Perkin Elmer Pyris 1 TGA instrument. About 10-20 mg of sample was loaded into a ceramic pan for the measurements. The sample temperature was ramped from 25 to 350° C. at 10° C./min. Nitrogen was used as the purge gas at a flow rate of 40 mL/min.

[5] = Transition temperature of the enantiotropic polymorphs from melting enthalpy and melting points; conditions: estimated from melting enthalpy and melting points of Form C and Form X
Protocol: From careful measurements of melting enthalpy and melting points of both forms, the transition temperature has been estimated to lie between 120 to 145° C.
Differential scanning calorimetry (DSC): DSC experiments were carried out using a Perkin Elmer DSC8500 system. About 0.5-3 mg of sample was used for the measurements. An aluminium pan was used for the analysis and was sealed by applying pressure by hand and pushing each part of the pan together. The temperature was ramped from −60 to 270° C. at 20° C./min. Nitrogen was used as the purge gas with a flow rate of 20 mL/min.

Row | SMILES | 4 week stress stability test, solid state transformation [1] | Polymorphic stability/conversion in competitive slurrying [2] | Solubility of Form X relative to Form C [3] | Polymorphic conversion in competitive slurrying ([2]; competitive slurrying at 110° C.) | Polymorphic stability/conversion in competitive slurrying ([2]; listed as mixtures of Form X+C) | Transition temperature at which the two polymorphs are equally stable ([2]; lower bound from competitive slurrying of Form C and Form X) | Temperature below which stable towards degradation (TGA trail) [4] | Transition temperature (estimated) [5] [°C]
1 | C[C@@H](NC1CCC(c2ccc(OCC(=O)O)cc2)C1)c1cccc2ccccc12 (stereo in doubt) [Form C, {4-[(1R,3S)-3-((R)-1-Naphthalen-1-yl-ethylamino)-cyclopentyl]-phenoxy}-acetic acid] | without any solid state transformation | stable at all three temperatures | – | – | – | – | – | –
2 | C[C@@H](NC1CCC(c2ccc(OCC(=O)O)cc2)C1)c1cccc2ccccc12 (stereo in doubt) [Form X, {4-[(1R,3S)-3-((R)-1-Naphthalen-1-yl-ethylamino)-cyclopentyl]-phenoxy}-acetic acid] | without any solid state transformation | convert to pure Form C at all three temperatures | higher compared to Form C | transformation of Form X to Form C | – | – | – | –
3 | C[C@@H](NC1CCC(c2ccc(OCC(=O)O)cc2)C1)c1cccc2ccccc12 (stereo in doubt) [{4-[(1R,3S)-3-((R)-1-Naphthalen-1-yl-ethylamino)-cyclopentyl]-phenoxy}-acetic acid] | without any solid state transformation | – | – | – | convert to pure Form C at all three temperatures | above 110 °C | below 255 °C | 120 to 145
